Results: patent US20260223854A1, “AN HERBICIDAL COMBINATION, COMPOSITION AND METHOD OF CONTROLLING WEEDS USING THE SAME” (priority 2023, published 2026)

Assays:
Type in all cases: in vivo
[1] = test system: Borreria verticillata; assay: Greenhouse post-emergence herbicidal activity on Borreria verticillata; conditions: L-glufosinate ammonium 150 g a.i./ha
Protocol: (§1) The expected efficacy of a combination of L-glufosinate ammonium and the other herbicides was calculated using the well-established Colby method. Any difference between the observed and “expected” efficacy could be attributed to synergy between the two compounds.
(§2) In the Colby method, the expected (or predicted) response of a combination of herbicides is calculated by taking the product of the observed response for each individual component of the combination when applied alone, divided by 100, and subtracting this value from the sum of the observed response for each component when applied alone. An unexpected enhancement in efficacy of the combination is then determined by comparing the observed response of the combination to the expected (or predicted) response as calculated from the observed response of each individual component alone. If the observed response of the combination is greater than the expected (or predicted) response, or stated conversely, if the difference between the observed and expected response is greater than zero, then the combination is said to be synergistic or unexpectedly effective (Colby, S. R., Weeds, 1967 (15), p. 20-22). The Colby method requires only a single dose of each herbicide applied alone and the mixture of both doses. The formula used to calculate the expected efficacy (EE) which was compared with the observed efficacy (OE) to determine the efficacy of the present disclosure is explained hereinbelow:
(§3) Methodology: Greenhouse trials were conducted to evaluate the efficacy of the combination of L-glufosinate ammonium and triketone herbicides—mesotrione and tembotrione—on weeds Amaranthus viridis, Borreria verticillata, Brachiaria decumbens and Eleusine indica.
(§4) The soil used was sandy clay loam—sand: 68.0%; silt: 8.0%; clay: 24.0%.
(§5) All treatments were in 4 replications per treatment with a spray volume of 150 L/ha.
The percentage efficacy was calculated at 28 and 35 days after application (DAA). The target weed was Borreria verticillata, and the concentration of the herbicide and the results are recorded in Table 2.
The percentage efficacy was calculated at 3 and 7 days of application (DAA). The target weed was Borreria verticillata, and the concentration of the herbicide and the results are recorded in Table 6.

[2] = test system: Eleusine indica; assay: Greenhouse post-emergence herbicidal activity on Eleusine indica; conditions: L-glufosinate ammonium 150 g a.i./ha
Protocol: as §1, §2, §3, §4, §5
The percentage efficacy was calculated at 14 days after application (DAA). The target weed was Eleusine indica, and the concentration of the herbicide and the results are recorded in Table 3.
The percentage efficacy was calculated at 3, 7, 21, 28, 35 days of application (DAA). The target weed was Eleusine indica, and the concentration of the herbicide and the results are recorded in Table 8.

[3] = test system: Brachiaria decumbens; assay: Greenhouse post-emergence herbicidal activity on Brachiaria decumbens; conditions: 3 DAA, L-glufosinate ammonium 150 g a.i./ha
Protocol: as §1, §2, §3, §4, §5
The percentage efficacy was calculated at 14 days after application (DAA). The target weed was Brachiaria decumbens, and the concentration of the herbicide and the results are recorded in Table 1.
The percentage efficacy was calculated at 3 days of application (DAA). The target weed was Brachiaria decumbens and the concentration of the herbicide and the results are recorded in Table 7.

[4] = test system: Amaranthus viridis; assay: Greenhouse post-emergence herbicidal activity on Amaranthus viridis; conditions: L-glufosinate ammonium 150 g a.i./ha
Protocol: as §1, §2, §3, §4, §5
The percentage efficacy was calculated at 3 and 7 days after application (DAA). The target weed was Amaranthus viridis, and the concentration of the herbicide and the results are recorded in Table 4.
The percentage efficacy was calculated at 3 and 7 days of application (DAA). The target weed was Amaranthus viridis, and the concentration of the herbicide and the results are recorded Table 5.

[5] = 3 DAA, tembotrione 53 g a.i./ha, Table 6
[6] = 7 DAA, tembotrione 53 g a.i./ha, Table 6
[7] = 28 DAA, mesotrione 100 g a.i./ha, Table 2
[8] = 35 DAA, mesotrione 100 g a.i./ha, Table 2
[9] = 3 DAA, tembotrione 53 g a.i./ha, Table 8
[10] = 7 DAA, tembotrione 53 g a.i./ha, Table 8
[11] = 14 DAA, mesotrione 100 g a.i./ha, Table 3
[12] = 21 DAA, tembotrione 53 g a.i./ha, Table 8
[13] = 28 DAA, tembotrione 53 g a.i./ha, Table 8
[14] = 35 DAA, tembotrione 53 g a.i./ha, Table 8
[15] = mesotrione 100 g a.i./ha, Table 1
[16] = tembotrione 53 g a.i./ha, Table 7
[17] = 3 DAA, mesotrione 100 g a.i./ha, Table 4
[18] = 3 DAA, tembotrione 53 g a.i./ha, Table 5
[19] = 7 DAA, mesotrione 100 g a.i./ha, Table 4
[20] = 7 DAA, tembotrione 53 g a.i./ha, Table 5

SMILES	% Control [1, 5]	% Control [1, 6]	% Control [1, 7]	% Control [1, 8]	% Control [2, 9]	% Control [2, 10]	% Control [2, 11]	% Control [2, 12]	% Control [2, 13]	% Control [2, 14]	% Control [3, 15]	% Control [3, 16]	% Control [4, 17]	% Control [4, 18]	% Control [4, 19]	% Control [4, 20]
CP(=O)(O)CC[C@H](N)C(=O)O.N [L-glufosinate ammonium, ammonium (2S)-2-amino-4-(methylphosphinato) butyric acid]	55%	80%	90%	85%	40%	50%	30%	50%	30%	40%	40%	40%	40%	50%	80%	80%
CS(=O)(=O)c1ccc(C(=O)C2C(=O)CCCC2=O)c([N+](=O)[O-])c1 [Mesotrione, mesotrione]			75%	75%			20%				10%		10%		30%	
CS(=O)(=O)c1ccc(C(=O)C2C(=O)CCCC2=O)c(Cl)c1COCC(F)(F)F [Tembotrione, tembotrione]	10%	30%			5%	15%		28%	35%	20%		8%		10%		30%
